Measured values: PubChem BioAssay (NCI)
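Exposure lasted 48 hours, with cells grown in 96-well plates and compounds tested at five concentrations. TGI is the concentration that stops growth completely.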

Columns and labels:
Assay in all cases: growth of human tumour cells (NCI), 48 h
HCT-116 colon = system: HCT-116 colon
M14 melanoma = system: M14 melanoma
SK-MEL-5 melanoma = system: SK-MEL-5 melanoma
OVCAR-8 ovarian = system: OVCAR-8 ovarian
SK-OV-3 ovarian = system: SK-OV-3 ovarian
MDA-MB-435 = system: MDA-MB-435
A549 NSCLC = system: A549 NSCLC
OVCAR-4 ovarian = system: OVCAR-4 ovarian
MDA-MB-231 breast = system: MDA-MB-231 breast
HS 578T breast = system: HS 578T breast
HOP-92 NSCLC = system: HOP-92 NSCLC
NCI-H460 lung = system: NCI-H460 lung
UACC-62 melanoma = system: UACC-62 melanoma
SF-295 CNS = system: SF-295 CNS
BT-549 breast = system: BT-549 breast
NCI-H23 lung = system: NCI-H23 lung
CCRF-CEM leukemia = system: CCRF-CEM leukemia
SN12C renal = system: SN12C renal
RXF 393 renal = system: RXF 393 renal
SK-MEL-28 melanoma = system: SK-MEL-28 melanoma
HT29 colon = system: HT29 colon
MALME-3M melanoma = system: MALME-3M melanoma
SK-MEL-2 melanoma = system: SK-MEL-2 melanoma
SNB-19 CNS = system: SNB-19 CNS
UO-31 renal = system: UO-31 renal
NCI/ADR-RES ovarian = system: NCI/ADR-RES ovarian
PC-3 prostate = system: PC-3 prostate
KM12 colon = system: KM12 colon
LOX IMVI melanoma = system: LOX IMVI melanoma
T-47D breast = system: T-47D breast
K-562 leukemia = system: K-562 leukemia
SW-620 colon = system: SW-620 colon
U251 CNS = system: U251 CNS
CAKI-1 renal = system: CAKI-1 renal
SNB-75 CNS = system: SNB-75 CNS
IGROV1 ovarian = system: IGROV1 ovarian
HOP-62 NSCLC = system: HOP-62 NSCLC
DU-145 prostate = system: DU-145 prostate
UACC-257 melanoma = system: UACC-257 melanoma
MDA-N = system: MDA-N
A498 renal = system: A498 renal
MOLT-4 leukemia = system: MOLT-4 leukemia
NCI-H522 lung = system: NCI-H522 lung
COLO 205 colon = system: COLO 205 colon
SR leukemia = system: SR leukemia
RPMI-8226 leukemia = system: RPMI-8226 leukemia
TK-10 renal = system: TK-10 renal
MCF7 breast = system: MCF7 breast
SF-268 CNS = system: SF-268 CNS
OVCAR-5 ovarian = system: OVCAR-5 ovarian
786-0 renal = system: 786-0 renal
OVCAR-3 ovarian = system: OVCAR-3 ovarian
ACHN renal = system: ACHN renal
SF-539 CNS = system: SF-539 CNS
HCT-15 colon = system: HCT-15 colon
EKVX NSCLC = system: EKVX NSCLC
HL-60(TB) leukemia = system: HL-60(TB) leukemia
HCC-2998 colon = system: HCC-2998 colon
HOP-18 NSCLC = system: HOP-18 NSCLC
NCI-H226 lung = system: NCI-H226 lung
M19-MEL melanoma = system: M19-MEL melanoma
LXFL 529 NSCLC = system: LXFL 529 NSCLC
DMS 114 small cell lung = system: DMS 114 small cell lung
DLD-1 colon = system: DLD-1 colon
SNB-78 CNS = system: SNB-78 CNS

SMILES: Oc1cc(CN2COc3ccccc32)c(O)cc1CNC1CCCCC1
- TGI (HCT-116 colon): 35.3 µM
- TGI (M14 melanoma): > 100 µM
- TGI (SK-MEL-5 melanoma): 35.2 µM
- TGI (OVCAR-8 ovarian): 57.5 µM
- TGI (SK-OV-3 ovarian): > 100 µM
- TGI (MDA-MB-435): 60.1 µM
- TGI (A549 NSCLC): > 100 µM
- TGI (OVCAR-4 ovarian): 52.2 µM
- TGI (MDA-MB-231 breast): 41.8 µM
- TGI (HS 578T breast): > 100 µM
- TGI (HOP-92 NSCLC): 75.4 µM
- TGI (NCI-H460 lung): 32.3 µM
- TGI (UACC-62 melanoma): 55.1 µM
- TGI (SF-295 CNS): > 100 µM
- TGI (BT-549 breast): 90.9 µM
- TGI (NCI-H23 lung): 64.5 µM
- TGI (CCRF-CEM leukemia): > 100 µM
- TGI (SN12C renal): > 100 µM
- TGI (RXF 393 renal): 71.8 µM
- TGI (SK-MEL-28 melanoma): 45 µM
- TGI (HT29 colon): 52.3 µM
- TGI (MALME-3M melanoma): 38.2 µM
- TGI (SK-MEL-2 melanoma): 50 µM
- TGI (SNB-19 CNS): > 100 µM
- TGI (UO-31 renal): > 100 µM
- TGI (NCI/ADR-RES ovarian): > 100 µM
- TGI (PC-3 prostate): 42 µM
- TGI (KM12 colon): > 100 µM
- TGI (LOX IMVI melanoma): 31.6 µM
- TGI (T-47D breast): 64.7 µM
- TGI (K-562 leukemia): 52.9 µM
- TGI (SW-620 colon): > 100 µM
- TGI (U251 CNS): 32.5 µM
- TGI (CAKI-1 renal): 67.5 µM
- TGI (SNB-75 CNS): 38.9 µM
- TGI (IGROV1 ovarian): > 100 µM
- TGI (HOP-62 NSCLC): > 100 µM
- TGI (DU-145 prostate): > 100 µM
- TGI (UACC-257 melanoma): 30.6 µM
- TGI (MDA-N): 32.2 µM
- TGI (A498 renal): 49.9 µM
- TGI (MOLT-4 leukemia): 39.3 µM
- TGI (NCI-H522 lung): 27.8 µM
- TGI (COLO 205 colon): 31.2 µM
- TGI (SR leukemia): 49.7 µM
- TGI (RPMI-8226 leukemia): 64.5 µM
- TGI (TK-10 renal): 38 µM
- TGI (MCF7 breast): 42.7 µM
- TGI (SF-268 CNS): 33.6 µM
- TGI (OVCAR-5 ovarian): > 100 µM
- TGI (786-0 renal): 34 µM
- TGI (OVCAR-3 ovarian): > 100 µM
- TGI (ACHN renal): 78.5 µM
- TGI (SF-539 CNS): 34.6 µM
- TGI (HCT-15 colon): 47.6 µM
- TGI (EKVX NSCLC): 36.3 µM

SMILES: CSc1nc(NC2OC(COC(C)=O)C(OC(C)=O)C(OC(C)=O)C2OC(C)=O)c(N=C(C)C(C)=O)c(=O)n1C (stereo unspecified)
- TGI (HCT-116 colon): > 100 µM
- TGI (HL-60(TB) leukemia): > 100 µM
- TGI (M14 melanoma): > 100 µM
- TGI (SK-MEL-5 melanoma): > 100 µM
- TGI (OVCAR-8 ovarian): > 100 µM
- TGI (HCC-2998 colon): > 100 µM
- TGI (SK-OV-3 ovarian): > 100 µM
- TGI (A549 NSCLC): > 100 µM
- TGI (OVCAR-4 ovarian): > 100 µM
- TGI (HOP-92 NSCLC): > 100 µM
- TGI (UACC-62 melanoma): > 100 µM
- TGI (SF-295 CNS): > 100 µM
- TGI (CCRF-CEM leukemia): > 100 µM
- TGI (HOP-18 NSCLC): > 100 µM
- TGI (HT29 colon): > 100 µM
- TGI (MALME-3M melanoma): > 100 µM
- TGI (SK-MEL-2 melanoma): > 100 µM
- TGI (SNB-19 CNS): > 100 µM
- TGI (UO-31 renal): > 100 µM
- TGI (KM12 colon): > 100 µM
- TGI (NCI-H226 lung): > 100 µM
- TGI (M19-MEL melanoma): > 100 µM
- TGI (LXFL 529 NSCLC): > 100 µM
- TGI (K-562 leukemia): > 100 µM
- TGI (SW-620 colon): > 100 µM
- TGI (CAKI-1 renal): > 100 µM
- TGI (DMS 114 small cell lung): > 100 µM
- TGI (IGROV1 ovarian): > 100 µM
- TGI (HOP-62 NSCLC): > 100 µM
- TGI (UACC-257 melanoma): > 100 µM
- TGI (DLD-1 colon): > 100 µM
- TGI (SNB-78 CNS): > 100 µM
- TGI (MOLT-4 leukemia): > 100 µM
- TGI (COLO 205 colon): > 100 µM
- TGI (RPMI-8226 leukemia): > 100 µM
- TGI (TK-10 renal): > 100 µM
- TGI (786-0 renal): > 100 µM
- TGI (OVCAR-3 ovarian): > 100 µM
- TGI (SF-539 CNS): > 100 µM
- TGI (EKVX NSCLC): > 100 µM
